Earlier results in US20220313611A1, “METHODS TO PREPARE DRY POWDERS USING SUSPENSION BASED THIN FILM FREEZING” (BOARD OF REGENTS, THE UNIVERSITY OF TEXAS SYSTEM, priority 2021, published 2022).

solubility in water: practically insoluble in water
Compound: C=CC[C@@H]1/C=C(\C)C[C@H](C)C[C@H](OC)[C@H]2O[C@@](O)(C(=O)C(=O)N3CCCC[C@H]3C(=O)O[C@H](/C(C)=C/[C@@H]3CC[C@@H](O)[C@H](OC)C3)[C@H](C)[C@@H](O)CC1=O)[C@H](C)C[C@@H]2OC [TAC, Tacrolimus]
